Assay results: patent US20140294873A1, “SMALL MOLECULE SCREEN FOR INHIBITORS OF NFAT: AP-1: DNA INTERACTIONS” (CHILDREN'S MEDICAL CENTER CORPORATION, priority 2011, published 2014)
Entries after “also recorded” stand apart in the source; their conditions may differ.

T1: NFAT:DNA complex (Homo sapiens, UniProt Q13469)
T1 construct: The NFAT DBD containing a His tag was cloned into the pQE vector; His tag (MRGSHHHHHH leader) (N); made in house
T1 sequence (Q13469 with tags, fused parts or gaps): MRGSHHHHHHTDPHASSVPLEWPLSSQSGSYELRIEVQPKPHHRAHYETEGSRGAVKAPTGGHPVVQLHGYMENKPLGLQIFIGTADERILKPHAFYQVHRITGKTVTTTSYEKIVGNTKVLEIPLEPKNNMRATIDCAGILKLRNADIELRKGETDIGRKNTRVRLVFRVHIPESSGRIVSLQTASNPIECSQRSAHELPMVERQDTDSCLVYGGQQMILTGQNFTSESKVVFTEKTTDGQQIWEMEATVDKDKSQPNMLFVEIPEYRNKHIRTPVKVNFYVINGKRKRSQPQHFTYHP

T2: NFAT DNA-binding domain (NFAT-DBD) (UniProt Q13469 SEQ:15-300)
T2 chain: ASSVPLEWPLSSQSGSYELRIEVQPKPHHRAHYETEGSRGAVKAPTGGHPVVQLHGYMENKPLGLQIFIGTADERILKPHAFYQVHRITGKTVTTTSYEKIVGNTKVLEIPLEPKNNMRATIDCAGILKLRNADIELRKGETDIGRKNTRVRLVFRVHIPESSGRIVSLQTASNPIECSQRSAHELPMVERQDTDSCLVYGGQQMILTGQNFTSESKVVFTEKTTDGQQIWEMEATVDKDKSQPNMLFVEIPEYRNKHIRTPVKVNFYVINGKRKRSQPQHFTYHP

B1: ARRE2 probe, 32P (dsDNA)
DNA 1: CCTTCTGTATGAAACAAATTTTCCTCTTTG
DNA 2: CAAAGAGGAAAATTTGTTTCATACAGAAGG

Legend:
[1] = tested on: proinflammatory mediator mRNA in Th1 cells; experiment: Real time RT-PCR of T cells used for EAE induction; type: cell-based, mouse; details: for IL-2 mRNA transcript / IL-24 transcript levels / IP-10 transcript levels: compared to DMSO controls
Text: (§1) Real time RT-PCR: Total RNA was isolated from cell pellets using the RNeasy kit (Qiagen) followed by first-strand synthesis using SuperScript III (Invitrogen). Synthesized cDNA was amplified using the FastStart Universal SYBRGreen Master Mix (Roche). PCR data was collected using the StepOne Plus Real-Time PCR System (Applied Biosystems) and gene expression normalized to an endogenous GAPDH control using the ΔΔCT method; primer sequences have been described elsewhere.

EAE in C57BL/6 mice = experiment: Passive transfer EAE with compound-treated 2D2 Th1 cells; type: in vivo, mouse
Procedure: EAE induction: CD4 T cells from 2D2 transgenic mice were activated with 0.2 μg/mL αCD3/αCD28 under Th1-polarizing conditions for 48-60 h in the presence of DMSO or compound as indicated. T cells were rested and expanded for 2 d followed by restimulation with 0.1 μg/mL αCD3/αCD28 for 24 h in the presence of DMSO or compound. Cells were resuspended in 1×PBS and injected intraperitoneally into female 8 wk old C57BL/6 mice, 1.5 million T cells per mouse. Mice were monitored for weight loss and development of disease symptoms using a standard clinical scale: 0, healthy; 1, flaccid tail; 2, ataxia/paresis of hind limbs; 3, paralysis of hind limbs; 4, tetraparalysis; 5, moribund or death W.

NFAT:AP-1:DNA complex = molecular target: T3, NFAT:AP-1:DNA complex (Homo sapiens, UniProt P01100+P05412+Q13469, C154S/C269S); experiment: EMSA, NFAT:AP-1:DNA complex formation; type: binding; details: for assembly of the ternary complex: 6.25 mM compound; for inhibition of formation of the NFAT:AP-1:DNA complex: 32P end-labeled ARRE2, compound added before probe; for inhibition of NFAT:AP-1:DNA complex formation: compound in the 0-300 μM range
T3 construct: The NFAT DBD containing a His tag was cloned into the pQE vector; Fos and Jun bZIP domains (each encompassing 63 amino acids) were cloned into pETa vectors; His tag ([…] leader) (N); made in house; host or cells: E. coli Codon Plus BL21 (DE3) RIL for Fos and Jun; bacterial expression from a pQE vector for NFAT DBD
T3 sequence (P01100 with tags, fused parts or gaps C154S, one chain of several): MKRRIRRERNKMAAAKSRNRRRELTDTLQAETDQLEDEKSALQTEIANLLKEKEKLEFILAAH
T3 sequence (P05412 with tags, fused parts or gaps C269S, one chain of several): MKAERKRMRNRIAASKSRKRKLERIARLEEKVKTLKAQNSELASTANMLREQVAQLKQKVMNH
Procedure: (§2) EMSAs: Probe labeling: Annealed double-stranded ARRE2 was end-labeled using T4 polynucleotide kinase by incubating 50-100 ng DNA with 20 μCi 32P-γATP (Perkin Elmer) at 37° C. for 1 h followed by heat inactivation of the enzyme at 65° C. for 15′ and purification of radiolabeled ARRE2 using MicroSpin G-25 columns (GE Biosciences).
(§3) Binding reactions were set up in EMSA buffer (10 mM HEPES pH=7.5, 120 mM NaCl, 10% glycerol, 0.8 mg/mL BSA, 1 mM DTT) in the presence of complete protease inhibitor (Roche). Compounds CID 2740816 (1668 P02) and CID 5713461 (1661 N20) (Ryan Scientific) were resuspended in DMSO and incubated with 20 nM NFAT and 10 nM AP-1 for 10′ followed by addition of ˜2.5 nM radiolabeled ARRE2 probe. Reactions were then incubated for 30′ at room temperature and loaded on a 4% polyacrylamide gel (pre-run for 30-45′).

[2] = tested on: IFNγ production in 2D2 CD4 T cells; experiment: IFNγ production after compound treatment during Th1 activation; type: cell-based, mouse; details: 7.8 μM during activation under Th1 conditions, compared to DMSO
Procedure: (§4) T cell activation assays: Mouse CD4 T cells were isolated using the Dynal CD4 T cell positive isolation kit (Invitrogen) and activated with 1 μg/mL αCD3/αCD28 for 48-60 h under non-polarizing or Th1-conditions (10 ng/mL IL-12 and 10 μg/mL αIL-4). CD4CD25+ T cells were depleted from purified CD4 T cells using a CD25 microbead MACS kit (Miltenyi Biotech), and CD4CD25− T cells were activated with αCD3/αCD28 in the presence of 3 ng/mL TGF[…] (iTreg-polarizing conditions).
(§5) For restimulation, T cells from primary cultures were rested for 3-4 d, washed, counted and stimulated for 4 h with 10 nM PMA and varied concentrations of ionomycin; where indicated, CsA was added to cells at a final concentration of 2 μM 20′ before activation while compounds were added 45-60′ before activation. Brefeldin A was added at 10 μg/mL for the final 2-2.5 h of stimulation. T cells were fixed with 4% paraformaldehyde, permeabilized in saponin buffer and stained for intracellular cytokines; data were collected on a FACSCalibur instrument (BD Biosciences).

[3] = tested on: IL-2 and TNFα production in activated CD4 T cells; experiment: Intracellular cytokine FACS in restimulated CD4 T cells; type: cell-based, mouse; details: for inhibition of IL-2/TNFα production: restimulation with αCD3/αCD28 instead of PMA/ionomycin
Procedure: as §4, §5

IL-17 in CD4 T cells = experiment: IL-17 levels after compound treatment during primary Th17 differentiation; type: cell-based, mouse
Foxp3 = experiment: Treg-associated gene upregulation under iTreg-polarizing conditions (real time RT-PCR); type: cell-based, mouse; details: activation in the presence of TGFβ (iTreg polarizing)
Procedure: as §4, §1

NFAT:DNA complex = molecular target: T1, NFAT:DNA complex; experiment: EMSA, NFAT:DNA complex; type: binding; details: high concentration (6.25 mM)
Procedure: as §2, §3

CD4 T cells = experiment: Cytotoxicity / live cell numbers in restimulated CD4 T cells; type: cell-based, mouse; details: for cell numbers within the live cell gate: 4 h restimulation with compound; for cytotoxicity: at the concentrations tested
Procedure: as §5

CD69 = CD69 upregulation in restimulated CD4 T cells; type: cell-based, mouse; details: 4 h activation period, also at high concentrations
Procedure: as §5

[4] = molecular target: T2, NFAT DNA-binding domain (NFAT-DBD); experiment: EMSA; details: tags: His tag (MRGSHHHH..), pQE vector, E. coli; label: 32P 5'-end
[5] = Th1 cells treated with 7.8 μM compound, IP transfer
[6] = compared to 1668 P02- or DMSO-treated Th1 transfer groups
[7] = 10 nM PMA, ionomycin 100 nM or 300 nM
[8] = 10 nM PMA/100 nM ionomycin, 4 h

Molecule	IL-2 mRNA transcript [1]	IL-24 transcript levels [1]	IP-10 transcript levels [1]	assembly of the ternary complex (NFAT:AP-1:DNA complex)	inhibition of formation of the NFAT:AP-1:DNA complex (NFAT:AP-1:DNA complex)	inhibition of NFAT:AP-1:DNA complex formation (NFAT:AP-1:DNA complex)	levels of IFNγ production [2]	inhibition of IL-2 and TNFα production [3, 8]	inhibition of IL-2 and TNFα production ([3]; 10 nM PMA/500 nM ionomycin)	inhibition of IL-2/TNFα production [3]	IL-17 levels upon restimulation (IL-17 in CD4 T cells)	upregulation of Treg-associated genes, notably Foxp3 (Foxp3)	effect on the NFAT:DNA complex (NFAT:DNA complex)	cell numbers within the live cell gate (CD4 T cells)	cytotoxicity (CD4 T cells)	upregulation of CD69 (CD69)	also measured
N#C/C(=N/Nc1ccc2c(c1)OCO2)C(=O)N1CCCC1 [1661 N20]	highly significant reduction	remained unchanged	actually higher	almost abrogate	modestly inhibit	modest inhibition	slight decrease	inhibit production	inhibitory	acute inhibition	remained unchanged	did not affect	unaffected; also recorded: neither compound had an inhibitory effect	no apparent change; also recorded: unchanged	neither compound appeared to be cytotoxic	not affected; also recorded: unaffected	GM-CSF transcript levels ([1]; relative to DMSO controls): significantly reduced; levels of IFNγ mRNA ([1]; relative to DMSO controls): significantly reduced; kinetics of disease development (EAE in C57BL/6 mice; [5]): clearly delayed kinetics; severity of clinical symptoms of EAE (EAE in C57BL/6 mice; [5]): reduced severity; also recorded: decreased severity; mean clinical score (EAE in C57BL/6 mice; [6]): significantly lower; percentage weight loss (EAE in C57BL/6 mice; [6]): significantly lower; reduction in MFI of IL-2 [3, 7]: ≤ 50%; reduction in MFI of TNFα [3, 7]: ≤ 50%
O=C1CCCC(=O)C1=NNc1cc(C(F)(F)F)ccc1OCC(F)(F)F [1668 P02]	not statistically significant	remained unchanged	actually higher	almost abrogate	modestly inhibit	modest inhibition	slight decrease	inhibit production	to a lesser extent	acute inhibition	remained unchanged	did not affect	unaffected; also recorded: neither compound had an inhibitory effect	no apparent change; also recorded: unchanged	neither compound appeared to be cytotoxic	not affected; also recorded: unaffected	disease curve relative to DMSO-treated Th1 transfer group (EAE in C57BL/6 mice; Th1 cells treated with compound, IP transfer): overlapping disease curves
B1																	binding result [4]: binds
